Values of other authors, collected in US20090117584A1, “Non-Human mammalian Arthritis Model Featuring Human Antibodies Against Citrul-Linated Proteins” (GENMAB A/S, priority 2005, published 2009).

How the values were obtained:
[1] = system: human IgG; conditions: SCID mice engrafted with human RA tissue, treated with T-614
[2] = system: anti-CCP antibodies; conditions: RA patients; anti-TNFα therapy in combination with low-dose methotrexate

Compound	levels of human IgG in SCID-HuRag mice [1]	anti-CCP titers [2]
CS(=O)(=O)Nc1cc2occ(NC=O)c(=O)c2cc1Oc1ccccc1 [T-614]	decreases	–
infliximab: anti-TNFalpha therapy, named in the cited title	–	decrease
